# Data taken from publication PMC3961306, “Comparison of the Cancer Gene Targeting and Biochemical Selectivities of All Targeted Kinase Inhibitors Approved for Clinical Use” (PLoS ONE, 2014).
# Tests used:
# Assay in all cases: Kinase profiling in a biochemical assay panel (mobility shift assays and ELISA), %-inhibition at 1 μM; selectivity entropy
# [1] = target: panel of more than 300 wild-type and mutant kinases (313 kinase panel) (Homo sapiens, UniProt Q16816); settings: kinase PHKG1; 1 μM
# [2] = target: T1, panel of more than 300 wild-type and mutant kinases (313 kinase panel) (Homo sapiens, UniProt Q05513); settings: kinase PKCζ; 1 μM
# T1 sequence (Q05513 1-592): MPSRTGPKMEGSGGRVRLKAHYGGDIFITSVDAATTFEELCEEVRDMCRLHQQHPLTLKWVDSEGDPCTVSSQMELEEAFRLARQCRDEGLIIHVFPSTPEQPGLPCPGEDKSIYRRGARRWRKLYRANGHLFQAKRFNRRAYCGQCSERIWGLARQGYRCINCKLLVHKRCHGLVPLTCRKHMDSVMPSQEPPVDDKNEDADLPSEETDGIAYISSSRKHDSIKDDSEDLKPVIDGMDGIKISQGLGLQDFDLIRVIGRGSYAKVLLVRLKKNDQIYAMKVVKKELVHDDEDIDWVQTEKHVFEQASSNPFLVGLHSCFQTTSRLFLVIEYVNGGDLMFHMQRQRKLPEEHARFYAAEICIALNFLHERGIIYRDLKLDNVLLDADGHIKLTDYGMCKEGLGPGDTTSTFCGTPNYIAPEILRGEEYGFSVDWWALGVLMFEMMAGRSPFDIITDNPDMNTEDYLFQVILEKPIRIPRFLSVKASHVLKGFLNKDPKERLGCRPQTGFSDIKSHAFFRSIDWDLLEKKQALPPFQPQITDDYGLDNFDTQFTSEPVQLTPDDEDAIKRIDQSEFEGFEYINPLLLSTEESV
# [3] = target: panel of more than 300 wild-type and mutant kinases (313 kinase panel) (Homo sapiens, UniProt Q9P1W9); settings: kinase PIM2; 1 μM
# [4] = target: panel of more than 300 wild-type and mutant kinases (313 kinase panel) (Homo sapiens, UniProt Q9H2G2); settings: kinase SLK; 1 μM
# [5] = target: T2, panel of more than 300 wild-type and mutant kinases (313 kinase panel) (Homo sapiens, UniProt Q14164); settings: kinase IKKε; compound at 1 μM
# T2 sequence (Q14164 1-716): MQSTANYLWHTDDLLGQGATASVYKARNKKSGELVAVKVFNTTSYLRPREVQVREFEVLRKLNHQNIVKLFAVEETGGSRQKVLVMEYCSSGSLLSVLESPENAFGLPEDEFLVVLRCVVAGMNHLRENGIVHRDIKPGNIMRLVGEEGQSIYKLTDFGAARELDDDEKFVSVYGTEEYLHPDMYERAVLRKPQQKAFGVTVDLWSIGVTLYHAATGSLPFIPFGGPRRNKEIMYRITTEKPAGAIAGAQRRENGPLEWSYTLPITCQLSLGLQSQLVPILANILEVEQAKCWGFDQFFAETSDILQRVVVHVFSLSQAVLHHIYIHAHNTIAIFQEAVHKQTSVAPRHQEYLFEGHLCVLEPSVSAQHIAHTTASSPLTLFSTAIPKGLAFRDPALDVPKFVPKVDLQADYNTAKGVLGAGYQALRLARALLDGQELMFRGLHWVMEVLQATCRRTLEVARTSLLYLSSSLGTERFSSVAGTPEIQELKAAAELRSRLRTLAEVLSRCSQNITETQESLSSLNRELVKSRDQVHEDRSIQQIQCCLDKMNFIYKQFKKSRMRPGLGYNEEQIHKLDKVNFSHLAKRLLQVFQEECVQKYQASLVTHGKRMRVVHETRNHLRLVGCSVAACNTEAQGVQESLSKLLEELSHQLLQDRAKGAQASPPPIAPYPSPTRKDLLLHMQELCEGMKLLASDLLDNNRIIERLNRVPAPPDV
# [6] = target: panel of more than 300 wild-type and mutant kinases (313 kinase panel) (Homo sapiens, UniProt Q5VT25); settings: kinase MRCKα; 1 μM
# [7] = target: panel of more than 300 wild-type and mutant kinases (313 kinase panel) (Homo sapiens, UniProt P07949, M918T); settings: kinase RET(M918T); 1 μM
# [8] = target: T3, panel of more than 300 wild-type and mutant kinases (313 kinase panel) (Homo sapiens, UniProt Q8NE63); settings: kinase HIPK4; compound at 1 μM
# T3 sequence (Q8NE63 1-616): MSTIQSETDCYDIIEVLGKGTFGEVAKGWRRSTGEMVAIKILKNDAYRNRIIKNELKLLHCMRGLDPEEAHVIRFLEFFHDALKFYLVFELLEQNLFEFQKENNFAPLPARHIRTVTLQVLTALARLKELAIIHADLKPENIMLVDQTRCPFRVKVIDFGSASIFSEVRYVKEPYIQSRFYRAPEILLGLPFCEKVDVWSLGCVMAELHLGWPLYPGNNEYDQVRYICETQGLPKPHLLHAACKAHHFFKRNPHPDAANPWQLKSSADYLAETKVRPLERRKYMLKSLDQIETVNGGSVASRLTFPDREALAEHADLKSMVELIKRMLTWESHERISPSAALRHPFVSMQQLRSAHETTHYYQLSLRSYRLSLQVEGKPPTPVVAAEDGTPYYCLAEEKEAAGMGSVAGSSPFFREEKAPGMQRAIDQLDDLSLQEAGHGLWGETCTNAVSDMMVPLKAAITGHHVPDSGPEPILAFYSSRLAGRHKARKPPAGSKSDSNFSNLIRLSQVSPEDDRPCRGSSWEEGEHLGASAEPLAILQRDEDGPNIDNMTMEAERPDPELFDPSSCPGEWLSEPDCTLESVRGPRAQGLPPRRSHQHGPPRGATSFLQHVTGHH
# panel of more than 300 wild-type and mutant kinases (313 kinase panel) (Homo sapiens, UniProt Q16816), sequence (Q16816 whole entry, change not shown): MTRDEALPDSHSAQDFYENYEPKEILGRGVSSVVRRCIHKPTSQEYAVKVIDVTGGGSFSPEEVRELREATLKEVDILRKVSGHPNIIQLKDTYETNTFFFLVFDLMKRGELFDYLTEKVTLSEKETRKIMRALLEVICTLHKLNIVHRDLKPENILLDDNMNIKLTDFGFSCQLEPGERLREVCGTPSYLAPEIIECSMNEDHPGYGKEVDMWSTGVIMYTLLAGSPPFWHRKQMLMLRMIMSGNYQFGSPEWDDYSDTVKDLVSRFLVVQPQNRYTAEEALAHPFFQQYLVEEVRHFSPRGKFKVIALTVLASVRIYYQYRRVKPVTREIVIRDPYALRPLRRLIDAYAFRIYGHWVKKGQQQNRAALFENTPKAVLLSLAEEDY
# panel of more than 300 wild-type and mutant kinases (313 kinase panel) (Homo sapiens, UniProt P07949, M918T), sequence (P07949 29-1114 M918T): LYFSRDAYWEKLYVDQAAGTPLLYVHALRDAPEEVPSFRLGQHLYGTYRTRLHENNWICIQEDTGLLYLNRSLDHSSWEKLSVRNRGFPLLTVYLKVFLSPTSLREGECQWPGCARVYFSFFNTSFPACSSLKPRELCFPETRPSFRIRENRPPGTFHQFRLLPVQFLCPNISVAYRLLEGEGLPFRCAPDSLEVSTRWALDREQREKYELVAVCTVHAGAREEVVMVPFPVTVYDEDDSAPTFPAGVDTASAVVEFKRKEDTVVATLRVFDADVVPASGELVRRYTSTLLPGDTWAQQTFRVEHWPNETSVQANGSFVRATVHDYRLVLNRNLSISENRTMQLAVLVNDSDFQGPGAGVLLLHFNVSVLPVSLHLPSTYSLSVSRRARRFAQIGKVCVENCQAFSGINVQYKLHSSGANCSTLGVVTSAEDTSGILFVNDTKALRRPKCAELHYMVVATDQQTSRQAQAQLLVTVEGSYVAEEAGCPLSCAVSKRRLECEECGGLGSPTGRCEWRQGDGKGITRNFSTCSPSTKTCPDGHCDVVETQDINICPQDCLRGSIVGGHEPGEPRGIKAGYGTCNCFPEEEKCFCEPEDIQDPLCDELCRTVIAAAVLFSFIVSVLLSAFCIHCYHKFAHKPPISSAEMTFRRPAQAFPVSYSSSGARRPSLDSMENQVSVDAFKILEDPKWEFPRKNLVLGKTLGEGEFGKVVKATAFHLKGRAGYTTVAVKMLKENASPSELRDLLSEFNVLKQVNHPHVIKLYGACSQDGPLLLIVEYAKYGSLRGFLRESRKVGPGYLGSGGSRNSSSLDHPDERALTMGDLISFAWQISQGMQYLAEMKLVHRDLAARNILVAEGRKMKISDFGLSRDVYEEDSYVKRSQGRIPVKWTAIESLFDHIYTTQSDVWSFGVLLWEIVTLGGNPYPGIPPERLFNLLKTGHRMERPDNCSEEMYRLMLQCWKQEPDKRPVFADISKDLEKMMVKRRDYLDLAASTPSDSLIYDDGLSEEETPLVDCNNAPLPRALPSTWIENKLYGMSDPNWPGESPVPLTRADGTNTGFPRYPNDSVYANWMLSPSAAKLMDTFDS
compound,measurement,setting,value
CO[C@H]1C[C@@H]2CC[C@@H](C)[C@@](O)(O2)C(=O)C(=O)N2CCCC[C@H]2C(=O)O[C@H]([C@H](C)C[C@@H]2CC[C@@H](OC(=O)C(C)(CO)CO)[C@H](OC)C2)CC(=O)[C@H](C)/C=C(\C)[C@@H](O)[C@@H](OC)C(=O)[C@H](C)C[C@H](C)/C=C/C=C/C=C/1C [temsirolimus],%-inhibition of PHKG1,[1],1.57%
same,%-inhibition of PKCζ,[2],5%
same,%-inhibition of PIM2,[3],-6%
same,%-inhibition of SLK,[4],-4%
same,%-inhibition of IKKε,[5],-11%
same,%-inhibition of MRCKα,[6],-1.53%
same,%-inhibition of RET(M918T),[7],-3.41%
same,%-inhibition of HIPK4,[8],2.19%
CC(=O)Nc1cccc(-n2c(=O)n(C3CC3)c(=O)c3c(Nc4ccc(I)cc4F)n(C)c(=O)c(C)c32)c1 [trametinib],%-inhibition of PHKG1,[1],-2.24%
same,%-inhibition of PKCζ,[2],4.31%
same,%-inhibition of PIM2,[3],-4%
same,%-inhibition of SLK,[4],-2.6%
same,%-inhibition of IKKε,[5],-3.63%
same,%-inhibition of MRCKα,[6],-0.565%
same,%-inhibition of RET(M918T),[7],-1.41%
same,%-inhibition of HIPK4,[8],2.78%
CCCS(=O)(=O)Nc1ccc(F)c(C(=O)c2c[nH]c3ncc(-c4ccc(Cl)cc4)cc23)c1F [vemurafenib],%-inhibition of PHKG1,[1],-0.913%
same,%-inhibition of PKCζ,[2],13%
same,%-inhibition of PIM2,[3],-2%
same,%-inhibition of SLK,[4],43%
same,%-inhibition of IKKε,[5],-9%
same,%-inhibition of MRCKα,[6],0.383%
same,%-inhibition of RET(M918T),[7],11%
same,%-inhibition of HIPK4,[8],-0.437%
